Source: patent US11440913B2, “Aminoimidazopyridazines as kinase inhibitors” (BRISTOL-MYERS SQUIBB COMPANY, priority 2017, dated 2022)
Counter-ions that a name gives are not always drawn. Like-named read-outs stand apart in the source and are kept apart here.

Columns and labels:
[1] = test system: MLKL phosphorylation in HT29-L23 human colorectal adenocarcinoma cells; assay: MLKL Phosphorylation High-Content Assay; type: cell-based; details: necroptosis induced with TNFα, SMAC mimetic and Z-VAD, 6 h, read-out: pMLKL (IC50)
How it was run: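 HT29-L23 cells pretreated 30 min at 37 °C with compound (6.25 to 0.106 μM final), then necroptosis induced with TNFα 35 ng/mL, SMAC mimetic 700 nM and Z-VAD 140 nM for 6 h. Fixed cells immunostained for MLKL pS358 and imaged; IC50 and Ymax from 4-parameter logistic fit.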

[2] = molecular target: His-GST-TVMV-hRIPK1(1-324) (Homo sapiens (Human), UniProt Q13546); assay: RIPK1 HTRF Binding Assay; details: HTRF binding, 1 h at rt, read-out: RIPK1 (IC50)
Chain of His-GST-TVMV-hRIPK1(1-324) (Q13546 1-324): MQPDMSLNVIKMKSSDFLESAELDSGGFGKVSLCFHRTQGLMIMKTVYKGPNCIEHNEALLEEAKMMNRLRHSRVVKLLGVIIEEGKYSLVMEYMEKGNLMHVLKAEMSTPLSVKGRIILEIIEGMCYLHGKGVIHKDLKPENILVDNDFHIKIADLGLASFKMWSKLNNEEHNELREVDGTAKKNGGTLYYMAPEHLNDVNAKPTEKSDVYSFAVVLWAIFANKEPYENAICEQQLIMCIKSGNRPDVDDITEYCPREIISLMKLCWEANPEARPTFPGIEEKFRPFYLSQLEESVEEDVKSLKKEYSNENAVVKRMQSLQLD
How it was run: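 HTRF probe-displacement binding: 1 nM His-GST-TVMV-hRIPK1(1-324) (baculovirus construct), 90.6 nM probe, 0.2 nM anti-GST-Tb in 20 mM HEPES, 10 mM MgCl2, 0.015% Brij-35, 4 mM DTT, 0.05 mg/mL BSA. Incubated 1 h at rt; FRET 520/495 nm ratio, inhibition relative to DMSO-only wells.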

SMILES	IC50 [1] [µM]	IC50 [2] [µM]	IC50 ([1]; TFA) [µM]	IC50 ([2]; TFA) [µM]	IC50 ([1]; Homo sapiens) [µM]
COc1nc(C)c(-c2ccc3nc(NC(C)=O)cn3n2)cc1C(=O)NC(C)c1cc(C(F)(F)F)ccc1F (centres unmarked) [Example 277, 5-{2-acetamidoimidazo[1,2-b]pyridazin-6-yl}-N-{1-[2-fluoro-5-(trifluoromethyl)phenyl]ethyl}-2-methoxy-6-methylpyridine-3-carboxamide]	0.263	0.107			
COc1nc(C)c(-c2ccc3nc(NC(C)=O)cn3n2)cc1C(=O)NC(C)c1cc(OC(F)(F)F)ccc1F (centres unmarked) [Example 278, 5-{2-acetamidoimidazo[1,2-b]pyridazin-6-yl}-N-{1-[2-fluoro-5-(trifluoromethoxy)phenyl]ethyl}-2-methoxy-6-methylpyridine-3-carboxamide, TFA]			0.064	0.006	
COc1nc(C)c(-c2ccc3nc(NC(C)=O)cn3n2)cc1C(=O)NC(C)c1cc(OC(F)(F)F)ccc1F (centres unmarked) [Example 279, 5-{2-acetamidoimidazo[1,2-b]pyridazin-6-yl}-N-{1-[2-fluoro-5-(trifluoromethoxy)phenyl]ethyl}-2-methoxy-6-methylpyridine-3-carboxamide, TFA]			0.051	0.047	
COc1nc(C)c(-c2ccc3nc(NC(C)=O)cn3n2)cc1C(=O)NCc1cc(F)cc(OC(F)(F)F)c1 [Example 280, 5-{2-acetamidoimidazo[1,2-b]pyridazin-6-yl}-N-{[3-fluoro-5-(trifluoromethoxy)phenyl]methyl}-2-methoxy-6-methylpyridine-3-carboxamide]		0.005			0.036
COc1nc(C)c(-c2ccc3nc(NC(C)=O)cn3n2)cc1C(=O)N(C)Cc1cccc(OC(F)(F)F)c1 [Example 281, 5-{2-acetamidoimidazo[1,2-b]pyridazin-6-yl}-2-methoxy-N,6-dimethyl-N-{[3-(trifluoromethoxy)phenyl]methyl}pyridine-3-carboxamide]		0.006			0.004
COc1nc(C)c(-c2ccc3nc(NC(C)=O)cn3n2)cc1C(=O)N(C)Cc1ccccc1OC(F)(F)F [Example 283, 5-{2-acetamidoimidazo[1,2-b]pyridazin-6-yl}-2-methoxy-N,6-dimethyl-N-{[2-(trifluoromethoxy)phenyl]methyl}pyridine-3-carboxamide]		0.016			0.067
COc1nc(C)c(-c2ccc3nc(NC(C)=O)cn3n2)cc1C(=O)NCc1cc(F)c(F)cc1OCC1CC1 [Example 284, N-{[2-(cyclopropylmethoxy)-4,5-difluorophenyl]methyl}-5-{2-acetamidoimidazo[1,2-b]pyridazin-6-yl}-2-methoxy-6-methylpyridine-3-carboxamide]		0.005			0.005
COc1nc(C)c(-c2ccc3nc(NC(C)=O)cn3n2)cc1C(=O)NCc1c(F)ccc(F)c1OC [Example 285, N-[(3,6-difluoro-2-methoxyphenyl)methyl]-5-{2-acetamidoimidazo[1,2-b]pyridazin-6-yl}-2-methoxy-6-methylpyridine-3-carboxamide]		0.017			0.023
COc1nc(C)c(-c2ccc3nc(NC(C)=O)cn3n2)cc1C(=O)NCc1ccc(F)c(F)c1OCC1CC1 [Example 286, N-{[2-(cyclopropylmethoxy)-3,4-difluorophenyl]methyl}-5-{2-acelamidoimidazo[1,2-b]pyridazin-6-yl}-2-methoxy-6-methylpyridine-3-carboxamide]	0.019	0.009			
COc1nc(C)c(-c2ccc3nc(NC(C)=O)cn3n2)cc1C(=O)NCc1cc(F)cc(F)c1OCC1CC1 [Example 287, N-{[2-(cyclopropylmethoxy)-3,5-difluorophenyl](deutero)methyl}-5-{2-acetamidoimidazo[1,2-b]pyridazin-6-yl}-2-methoxy-6-methylpyridine-3-carboxamide]	0.002	0.004			
COc1nc(C)c(-c2ccc3nc(NC(C)=O)cn3n2)cc1C(=O)NCc1cccc(F)c1OCC1CCC1 [Example 288, N-{[2-(cyclobutylmethoxy)-3-fluorophenyl]methyl}-5-{2-acetamidoimidazo[1,2-b]pyridazin-6-yl}-2-methoxy-6-methylpyridine-3-carboxamide]		0.006			0.001
COc1nc(C)c(-c2ccc3nc(NC(C)=O)cn3n2)cc1C(=O)NC(C)c1cccc(OC(F)(F)F)c1 (centres unmarked) [Example 289, 5-{2-acetamidoimidazo[1,2-b]pyridazin-6-yl}-2-methoxy-6-methyl-N-{1-[3-(trifluoromethoxy)phenyl]ethyl}pyridine-3-carboxamide]	0.016	0.016			
COc1nc(C)c(-c2ccc3nc(NC(C)=O)cn3n2)cc1C(=O)NC(C)c1ccccc1OC(F)(F)F (centres unmarked) [Example 290, 5-{2-acetamidoimidazo[1,2-b]pyridazin-6-yl}-2-methoxy-6-methyl-N-{1-[2-(trifluoromethoxy)phenyl]ethyl}pyridine-3-carboxamide]	0.003	0.007			
COc1nc(C)c(-c2ccc3nc(NC(C)=O)cn3n2)cc1C(=O)NC(C)c1ccccc1OC(F)(F)F (centres unmarked) [Example 291, 5-{2-acetamidoimidazo[1,2-b]pyridazin-6-yl}-2-methoxy-6-methyl-N-{1-[2-(trifluoromethoxy)phenyl]ethyl}pyridine-3-carboxamide]	> 6.25	> 5			
COc1nc(C)c(-c2ccc3nc(NC(C)=O)cn3n2)cc1C(=O)NC(C)c1cccc(OC(F)(F)F)c1 (centres unmarked) [Example 292, 5-{2-acetamidoimidazo[1,2-b]pyridazin-6-yl}-2-methoxy-6-methyl-N-{1-[3-(trifluoromethoxy)phenyl]ethyl}pyridine-3-carboxamide]	0.037	0.024			
COc1nc(C)c(-c2ccc3nc(NC(C)=O)cn3n2)cc1C(=O)NCc1cc(F)cc(C(F)(F)F)c1 [Example 293, 5-{2-acetamidoimidazo[1,2-b]pyridazin-6-yl}-N-{[3-fluoro-5-(trifluoromethyl)phenyl]methyl}-2-methoxy-6-methylpyridine-3-carboxamide]		0.033			0.135
COc1nc(C)c(-c2ccc3nc(NC(C)=O)cn3n2)cc1C(=O)NCc1cc(F)cc(F)c1OCC1CCC1 [Example 294, N-{[2-(cyclobutylmethoxy)-3,5-difluorophenyl]methyl}-5-{2-acetamidoimidazo[1,2-b]pyridazin-6-yl}-2-methoxy-6-methylpyridine-3-carboxamide]		0.01			0.003
COc1nc(C)c(-c2ccc3nc(NC(C)=O)cn3n2)cc1C(=O)NCc1cc(C(F)(F)F)ccc1F [Example 296, 5-{2-acetamidoimidazo[1,2-b]pyridazin-6-yl}-N-{[2-fluoro-5-(trifluoromethyl)phenyl]methyl}-2-methoxy-6-methylpyridine-3-carboxamide]		0.01			0.02
COc1nc(C)c(-c2ccc3nc(NC(C)=O)cn3n2)cc1C(=O)NCc1cc(OCC2CC2)ccc1F [Example 297, N-{[5-(cyclopropylmethoxy)-2-fluorophenyl]methyl}-5-{2-acetamidoimidazo[1,2-b]pyridazin-6-yl}-2-methoxy-6-methylpyridine-3-carboxamide]		0.011			0.036
COc1nc(C)c(-c2ccc3nc(NC(C)=O)cn3n2)cc1C(=O)NCc1c(F)cc(F)cc1OCC1CC1 [Example 298, N-{[2-(cyclopropylmethoxy)-4,6-difluorophenyl]methyl}-5-{2-acetamidoimidazo[1,2-b]pyridazin-6-yl}-2-methoxy-6-methylpyridine-3-carboxamide]		0.043			0.079
COc1nc(C)c(-c2ccc3nc(NC(C)=O)cn3n2)cc1C(=O)NCc1cccc(F)c1OCC1CC1 [Example 299, N-{[2-(cyclopropylmethoxy)-3-fluorophenyl]methyl}-5-{2-acetamidoimidazo[1,2-b]pyridazin-6-yl}-2-methoxy-6-methylpyridine-3-carboxamide]		0.004			0.001
COc1nc(C)c(-c2ccc3nc(NC(C)=O)cn3n2)cc1C(=O)NCc1cc(F)cc(F)c1OCC1CC1 [Example 300, N-{[2-(cyclopropylmethoxy)-3,5-difluorophenyl]methyl}-5-{2-acetamidoimidazo[1,2-b]pyridazin-6-yl}-2-methoxy-6-methylpyridine-3-carboxamide]		0.004			0.076
COc1nc(C)c(-c2ccc3nc(NC(C)=O)cn3n2)cc1C(=O)NCC[C@H](O)c1ccc(Cl)cc1 [Example 301, N-[(3S)-3-(4-chlorophenyl)-3-hydroxypropyl]-5-{2-acetamidoimidazo[1,2-b]pyridazin-6-yl}-2-methoxy-6-methylpyridine-3-carboxamide]		0.025			0.022
COc1nc(C)c(-c2ccc3nc(NC(C)=O)cn3n2)cc1C(=O)NCc1ccccc1OC(C)C1CCCC1 (centres unmarked) [Example 302, N-{[2-(1-cyclopentylethoxy)phenyl]methyl}-5-{2-acetamidoimidazo[1,2-b]pyridazin-6-yl}-2-methoxy-6-methylpyridine-3-carboxamide]	0.016	0.025			
COc1nc(C)c(-c2ccc3nc(NC(C)=O)cn3n2)cc1C(=O)NCc1ccccc1OC(C)C1CCCC1 (centres unmarked) [Example 303, N-{[2-(1-cyclopentylethoxy)phenyl]methyl}-5-{2-acetamidoimidazo[1,2-b]pyridazin-6-yl}-2-methoxy-6-methylpyridine-3-carboxamide]	0.043	0.022			
